Laboratory results published in PubChem BioAssay (NCI).
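Dose response: 5 concentrations. Exposure: 48 h. Format: 96-well plates. Endpoint: linear interpolation; highest concentration if not reached. Definition used: TGI = concentration required for complete inhibition of growth.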

What was measured:
Experiment in all cases: NCI tumour cell line growth inhibition, 48 h
SW-620 colon = system: SW-620 colon
HT29 colon = system: HT29 colon
A498 renal = system: A498 renal
NCI-H226 lung = system: NCI-H226 lung
MDA-MB-231 breast = system: MDA-MB-231 breast
MDA-MB-435 = system: MDA-MB-435
CCRF-CEM leukemia = system: CCRF-CEM leukemia
HOP-92 NSCLC = system: HOP-92 NSCLC
SK-MEL-2 melanoma = system: SK-MEL-2 melanoma
OVCAR-4 ovarian = system: OVCAR-4 ovarian
LOX IMVI melanoma = system: LOX IMVI melanoma
KM12 colon = system: KM12 colon
A549 NSCLC = system: A549 NSCLC
TK-10 renal = system: TK-10 renal
SN12C renal = system: SN12C renal
IGROV1 ovarian = system: IGROV1 ovarian
OVCAR-8 ovarian = system: OVCAR-8 ovarian
HCT-116 colon = system: HCT-116 colon
NCI-H522 lung = system: NCI-H522 lung
SK-MEL-28 melanoma = system: SK-MEL-28 melanoma
M14 melanoma = system: M14 melanoma
MALME-3M melanoma = system: MALME-3M melanoma
OVCAR-3 ovarian = system: OVCAR-3 ovarian
COLO 205 colon = system: COLO 205 colon
PC-3 prostate = system: PC-3 prostate
SR leukemia = system: SR leukemia
HOP-62 NSCLC = system: HOP-62 NSCLC
MOLT-4 leukemia = system: MOLT-4 leukemia
CAKI-1 renal = system: CAKI-1 renal
MDA-N = system: MDA-N
RPMI-8226 leukemia = system: RPMI-8226 leukemia
MCF7 breast = system: MCF7 breast
EKVX NSCLC = system: EKVX NSCLC
U251 CNS = system: U251 CNS
SF-268 CNS = system: SF-268 CNS
K-562 leukemia = system: K-562 leukemia
DU-145 prostate = system: DU-145 prostate
HS 578T breast = system: HS 578T breast
OVCAR-5 ovarian = system: OVCAR-5 ovarian
SF-295 CNS = system: SF-295 CNS
NCI-H23 lung = system: NCI-H23 lung
UACC-62 melanoma = system: UACC-62 melanoma
786-0 renal = system: 786-0 renal
SK-MEL-5 melanoma = system: SK-MEL-5 melanoma
RXF 393 renal = system: RXF 393 renal
HCT-15 colon = system: HCT-15 colon
HL-60(TB) leukemia = system: HL-60(TB) leukemia
SNB-19 CNS = system: SNB-19 CNS
SF-539 CNS = system: SF-539 CNS
NCI/ADR-RES ovarian = system: NCI/ADR-RES ovarian
SK-OV-3 ovarian = system: SK-OV-3 ovarian
NCI-H460 lung = system: NCI-H460 lung
T-47D breast = system: T-47D breast
UACC-257 melanoma = system: UACC-257 melanoma
SNB-75 CNS = system: SNB-75 CNS
HCC-2998 colon = system: HCC-2998 colon
BT-549 breast = system: BT-549 breast
ACHN renal = system: ACHN renal
SNB-78 CNS = system: SNB-78 CNS
M19-MEL melanoma = system: M19-MEL melanoma
DMS 114 small cell lung = system: DMS 114 small cell lung
UO-31 renal = system: UO-31 renal
XF 498 CNS = system: XF 498 CNS
DLD-1 colon = system: DLD-1 colon
KM20L2 colon = system: KM20L2 colon
LXFL 529 NSCLC = system: LXFL 529 NSCLC

Measured: TGI

C/C=C(\C)C(=O)OC1/C=C(\C)CC/C=C(\C)CC2OC(=O)C(C)(OC(C)=O)C12 (configuration not stated)
not listed: SNB-78 CNS | M19-MEL melanoma | DMS 114 small cell lung | UO-31 renal | XF 498 CNS | DLD-1 colon | KM20L2 colon | LXFL 529 NSCLC
> 100 µM: all other assays above

COC(=O)C1CCc2nnc(-c3ccccc3)n21 (configuration not stated)
not listed: MDA-MB-231 breast | MDA-MB-435 | PC-3 prostate | SR leukemia | MDA-N | MCF7 breast | DU-145 prostate | HS 578T breast | NCI/ADR-RES ovarian | SK-OV-3 ovarian | T-47D breast | BT-549 breast
> 100 µM: all other assays above
